Reference: US20130116209A1, “METHOD FOR SELECTION OF CHEMOTHERAPEUTIC AGENTS FOR ADENOCARCINOMA CANCER” (VENTANA MEDICAL SYSTEMS, INC., priority 2011, published 2013)

What was measured:
[1] = system: pancreatic adenocarcinoma; experiment: Retrospective RTOG 9704 study: tumor hENT1 expression (IHC, SP120 antibody) versus overall survival after adjuvant gemcitabine or 5FU; format: in vivo, human; conditions: for OS of Low hENT1 subgroup compared to High hENT1 subgroup / OS across High, Mid and No hENT1 subgroups: Method Six; for OS across High, Mid and No hENT1 subgroups: three subgroups (FIG. 2 score sheet), FIGS. 33-34
Description: The RTOG 9704 study and its results are further described in Regine, W. F. et al. (2008) JAMA 299(9):1019-1026; Regine, W. F. et al. (2011) Ann. Surg. Oncol. 18:1319-1326.
Formalin-fixed, paraffin-embedded (FFPE) specimens have been retrieved from tissue repositories. The specimens were obtained from patients prior to adjuvant therapy. Tissue was processed into tissue microarrays (TMA) at the RTOG Biospecimen Resource center and IHC staining was performed in a central laboratory (Ventana Medical Systems). Stained slides were interpreted by pathologists blind to study outcomes.
Samples have been centralized within the RTOG Biospecimen Resource facility. Tissue micro arrays (TMA) were also constructed in the RTOG Biospecimen Resource facility. Three cores from each tumor specimen were arrayed on three separate TMAs. A total of 220 cases were arrayed on the TMAs.
Slides from TMAs were prepared and forwarded to the core pathology laboratory (Ventana Medical Systems), and stained by SP120 rabbit monoclonal antibody for detection of hENT1 protein according to established methods. The following parameters were recorded for each specimen based on scoring by a pathologist blinded to the patient's clinical characteristics and outcome: • Intensity of staining (e.g. 0=no stain, 1+=weakly positive, 2+=moderately positive, 3+=strongly positive) • Percentage of tumor cells with staining at each intensity level (% of tumor tissue specifically excluding non-malignant cells/regions) • Pattern of staining (segmented or diffuse) • Cellular compartment (membrane or cytoplasm).

pancreatic cancer = conditions: Stage III/IV disease, gemcitabine monotherapy, unresectable pancreatic cancer; cited from earlier work
[2] = FIG. 3 algorithm (50% of tumor with membrane staining at 10×), FIGS. 4-5
[3] = FIG. 6 algorithm (PP at 2×, 4×, 10× and negative tumor <=50%), FIGS. 7-8

Structure (SMILES) | median OS as hENT1 expression increases from No to Low to High ([1]; Method Five (percent negative staining), FIG. 18) | median OS as hENT1 expression increases from Negative to Weak to Moderate to Strong ([1]; Method Four (staining intensity), FIG. 30) | median OS as hENT1 expression (H-score subgroup) increases ([1]; Method One (H-score), FIG. 22) | OS of Low hENT1 subgroup compared to High hENT1 subgroup [1, 2] | OS of Low hENT1 subgroup compared to High hENT1 subgroup [1, 3] | OS across High, Mid and No hENT1 subgroups [1] | median OS as hENT1 expression increases from Negative to Segmental to Diffuse ([1]; Method Three (staining pattern), FIG. 26) | median OS (pancreatic cancer) | OS of No hENT1 subgroup compared to Low and High hENT1 subgroups ([1]; Method Five, FIG. 19) | OS of combined Low and High hENT1 subgroup compared to No hENT1 subgroup ([1]; Method Five, FIG. 20) | OS of negative hENT1 subgroup compared to Weak, Moderate or Strong subgroups ([1]; Method Four, FIG. 31) | OS of H-score<=20 subgroup compared to H-score 20-80 and >=80 subgroups ([1]; Method One, FIG. 23) | OS of H-score>=50 patients compared to H-score <50 patients ([1]; Method One, FIG. 24) | OS of negative hENT1 subgroup compared to Segmental or Diffuse subgroups ([1]; Method Three, FIG. 27) | OS of patients with detectable hENT1 (S or D) compared to no hENT1 expression ([1]; Method Three, FIG. 28) | OS of subgroup N, 20× or 40× compared to subgroup PP at 2×, 4× or 10× ([1]; Method Two (magnification), FIGS. 15-16)
O=c1[nH]cc(F)c(=O)[nH]1 [5FU, 5-Fluorouracil] | do not demonstrate an improvement in OS | do not demonstrate an improvement in OS | do not demonstrate an improvement in OS | do not demonstrate improvement in OS | do not demonstrate improvement in OS | do not demonstrate improvement in OS | do not demonstrate an improvement in OS | – | – | – | – | – | – | – | – | –
Nc1ccn([C@@H]2O[C@H](CO)[C@@H](O)C2(F)F)c(=O)n1 [gemcitabine] | – | – | – | shorter OS | shorter OS | No hENT1 expression exhibited the shortest OS followed by the Mid hENT1 subgroup and the High hENT1 subgroup had the longest OS | – | 5-7 months | shorter OS | longer OS | shorter OS | shorter OS | longer OS | shorter OS | longer OS | shorter OS
